Source: US20050244414A1, “Method to ameliorate osteolysis and metastasis” (XENOTECH INCORPORATED, priority 1995, published 2005)

Legend:
bone resorption = details: cited from earlier work
fetal rat long bone = assay: Bone resorption measured as 45Ca release in organ culture; format: cell-based; details: stimulating factor alone at 10 ng/ml, 120 hours; untreated bones roughly 20%
Protocol: In this example, the percentage of labeled calcium (^45Ca) from fetal rat long bone was used as a measure of bone resorption. To label the bones, pregnant female rats at the 18th day of gestation were injected subcutaneously with 50 μCi of labeled calcium salt. The embryos were harvested the next day, at 19 days gestation, and long bones were obtained from the fetuses. The bones were cultured in standard media for 120 hours in the presence or absence of various putative bone resorption stimulation factors and in the presence and absence of the anti-PTH-rp (1-34) antibody used in Preparation A. The results are shown in FIG. 2.

Row | Molecule | potency relative to etidronate, ability to inhibit bone resorption (bone resorption) | release of labeled calcium (45Ca) into the medium (fetal rat long bone) [%]
1 | NCCC(O)(P(=O)(O)O)P(=O)(O)O [pamidronate] | approximately 100 times | 
2 | parathyroid hormone-related protein [PTH-rp] |  | ~90
3 | PTH: parathyroid hormone, bone resorption stimulating factor added to culture medium (protein, UniProt P01270 32-115, looked up, Parathyroid hormone, parathyroid hormone, bone resorption stimulating factor added to culture medium) Parathyroid hormone: SVSEIQLMHNLGKHLNSMERVEWLRKKLQDVHNFVALGAPLAPRDAGSQRPRKKEDNVLVESHEKSLGEADKADVNVLTKAKSQ |  | ~90
